{"source": "paper PMC12713470", "about": "“Design and Synthesis of Novel Chalcone Derivatives Targeting Bladder and Liver Cancer: Cytotoxicity Evaluation and Preliminary Mechanistic Studies” (ACS Omega, 2025)", "key": {"[1]": {"tested_on": "TOV-21G: human ovarian adenocarcinoma cells", "test": "MTT cytotoxicity assay on TOV-21G cells", "type": "cell-based", "method": "(§1) Cytotoxicity was determined using the MTT colorimetric assay, and half-maximal inhibitory concentrations (IC50, μM) were obtained for all cell lines (Table ). The selectivity index (SI) was calculated as the ratio of IC50 MRC-5/IC50 cancer cell line. Doxorubicin was employed as a positive control due to its broad-spectrum clinical use, either alone or in combination, against hepatocellular, ovarian, cervical, and bladder cancers. −\n(§2) In vitro biological assays were performed by using five human cell lines for cytotoxicity evaluation. HepG2 cells (ATCC HB-8065), derived from a human hepatocellular carcinoma of the liver (person), were cultured in Dulbecco’s modified Eagle medium (DMEM) supplemented with 5% fetal bovine serum (FBS), penicillin/streptomycin (100 IU/mL), and amphotericin B (5 μg/mL), in a humidified incubator with 5% CO2 at 37 °C. These cells were plated at a concentration of 2.0 × 10^4 cells/well in 96-well microplates. MRC-5 cells (ATCC CCL-171), derived from human lung fibroblasts of a […] fetus, were cultured under the same conditions and plated at 1.0 × 10^4 cells/well. T24 cells (ATCC HTB-4), established from a transitional cell carcinoma of the bladder (person), were also cultured under identical conditions and plated at a density of 1.0 × 10^4 cells/well. TOV-21G cells (ATCC CRL-11730), derived from a primary malignant ovarian adenocarcinoma (person), were maintained in DMEM with the same supplementation and environmental conditions and plated at 5.0 × 10^4 cells/well. […]\n(§3) HeLa, HepG2, MRC-5, T24, and TOV-21G cells were suspended in a culture medium supplemented with 5% fetal bovine serum (FBS) and seeded into 96-well microplates. The plates were incubated under a humidified atmosphere containing 5% CO2 at 37 °C for 24 h, allowing for adherence and monolayer formation. , Eight serial dilutions of the test samples, previously solubilized in dimethyl sulfoxide (DMSO), were prepared in DMEM supplemented with 1% FBS, covering a concentration range from […], and the results were converted to […]. The volume of DMSO in each well was limited to a final concentration not exceeding 2%. Following monolayer formation, the culture medium was aspirated and replaced with 100 μL of the diluted test samples and 100 μL of DMEM containing 1% FBS. The plates were then incubated under the same atmospheric and temperature conditions.\n(§4) Two hours prior to end point reading, 20 μL of MTT [3-(4,5-dimethylthiazol-2-yl)-2,5-diphenyltetrazolium bromide] solution (1.0 mg/mL in sterile phosphate-buffered saline, Sigma-Aldrich) was added to each well. The incubation period following sample addition varied according to the cell line: 24 h for MRC-5, 48 h for T24, and 72 h for HeLa, HepG2, and TOV-21G. After the appropriate incubation, absorbance was measured by using a VICTOR X3 microplate reader (PerkinElmer), and data were processed with WorkOut 2.5 software at a wavelength of 490 nm. Formazan formation, resulting from the MTT reduction by metabolically active cells, was used as an indirect measure of cell viability. The percentage of cytotoxicity was calculated using the equation % cytotoxicity = [(A – B)/A] × 100, where A is the optical density (OD4 9 0) of untreated control cells and B is the OD4 9 0 of treated cells.\n(§5) Cytotoxicity was expressed as the 50% cytotoxic concentration (CC5 0), representing the concentration of sample required to reduce cell viability by 50% relative to that of the untreated control."}, "[2]": {"tested_on": "HeLa, HepG2, T24, and TOV-21G", "test": "MTT cytotoxicity, all evaluated cancer cells (summary)", "type": "cell-based", "conditions": "Homo sapiens, read-out: IC50 values against all evaluated cancer cells", "method": "as §1\nIn vitro biological assays were performed by using five human cell lines for cytotoxicity evaluation. […]\nas §4, with “The incubation period following sample addition varied according to the cell line: 24 h for MRC-5, 48 h for T24, and 72 h for HeLa, HepG2, and TOV-21G.” left out, “Formazan formation, resulting from the MTT reduction by metabolically active cells, was used as an indirect measure of cell viability.” left out\nas §5"}, "[3]": {"tested_on": "MRC-5: human lung fibroblast cells", "test": "MTT cytotoxicity assay on MRC-5 cells", "type": "cell-based", "conditions": "MRC5, 24 h incubation, n = 3, ± standard deviation", "method": "as §1, §2, §3, §4, §5"}, "[4]": {"tested_on": "HepG2: human liver hepatocellular carcinoma cells", "test": "MTT cytotoxicity assay on HepG2 cells", "type": "cell-based", "method": "as §1, §2, §3, §4, §5"}, "[5]": {"tested_on": "HepG2 cells", "test": "Cell cycle progression (propidium iodide flow cytometry), HepG2", "type": "cell-based, human", "method": "Cells were seeded in 12-well plates at a density of 1.0 × 10^5 cells per well and incubated for 24 h to allow adhesion. Following this initial incubation, the cells were treated with the chalcone at concentrations of 0.92, 2.15, 4.62, and 9.25 μM for an additional 48 h. After the treatment, the cells were washed, trypsinized, and collected along with the culture supernatant into Falcon tubes. The samples were then centrifuged at 1000 rpm for 10 min. After centrifugation, the supernatant was discarded, and the cell pellets were resuspended in 200 μL of propidium iodide staining solution before being transferred to cytometry tubes. These tubes were incubated on ice, in the dark, for 30 min. Flow cytometric analysis was performed on 20,000 events using a BD FACScalibur flow cytometer (BD Biosciences, Franklin Lakes, NJ, USA), and the data were analyzed using FlowJo software."}, "[6]": {"tested_on": "T24 cells", "test": "Apoptosis/necrosis analysis (annexin V/PI), T24", "type": "cell-based, human", "conditions": "18.50 μM, 48 h", "method": "Cells in the exponential growth phase were seeded in 12-well plates at a density of 1 × 10^5 cells per well in 3 mL of complete culture medium. Along with the experimental groups, four control groups were included: one without labeling, one labeled only with propidium iodide (PI), one labeled only with Annexin V, and one labeled with both PI and Annexin V. After 24 h, the cells were treated with the compound at concentrations of 2.15, 4.62, 9.25, and 18.50 μM for 48 h. Following the treatment period, the supernatant from each well was transferred to cytometry tubes and centrifuged at 1100 rpm for 10 min. The remaining adhered cells were washed with 1 mL of Hanks’ solution, and 500 μL of trypsin was added to detach the cells. The trypsin action was neutralized by adding 500 μL of complete medium, and the contents (detached cells plus precentrifuged supernatant) were collected into cytometry tubes, which were then centrifuged again at 1100 rpm for 10 min. After centrifugation, the supernatant was discarded. For labeling, Annexin V binding buffer was prepared by diluting 1 mL of component C in 5 mL of distilled water. Next, a 100 μg/mL propidium iodide working solution was prepared by diluting 5 μL of the 1 mg/mL stock (component B) in 45 μL of 1× buffer. […]"}, "[7]": {"conditions": "all concentrations tested (0.92–4.62 μM)"}}}
{"compound": "CCCc1cc(/C=C/C(=O)c2ccc(C)cc2)c(OC)c(OC)c1", "note": "[compound 3, (E)-3-(2,3-Dimethoxy-5-propylphenyl)-1-(p-tolyl)-prop-2-en-1-one]", "values": [{"measurement": "IC50", "setting": "[1]; Homo sapiens, TOV21G, MTT, 72 h incubation, n = 3, NA: noncytotoxic at the concentrations tested", "result": "3 ± 2.6", "unit": "µM"}, {"measurement": "SI (TOV-21G)", "setting": "[1]; IC50 MRC-5/IC50 TOV-21G", "result": 18.2}, {"measurement": "IC50", "setting": "[2]", "result": "3.03 to 5.92", "unit": "µM"}, {"measurement": "IC50", "setting": "[3]", "result": "55.5 ± 1.2", "unit": "µM"}, {"measurement": "IC50", "setting": "[4]; Homo sapiens, HepG2, MTT, 72 h incubation, n = 3, NA: noncytotoxic at the concentrations tested", "result": "4.5 ± 1.2", "unit": "µM"}, {"measurement": "SI (HepG2)", "setting": "[4]; IC50 MRC-5/IC50 HepG2", "result": 12.2}, {"measurement": "fraction of cells in sub-G1, HepG2", "setting": "[5]; 0.92–4.62 μM", "result": "remained stable"}, {"measurement": "G2/M phase, HepG2", "setting": "[5]; [7]", "result": "corresponding reduction"}, {"measurement": "population of cells in the G0/G1 phase, HepG2", "setting": "[5]; [7]", "result": "significant increase"}, {"measurement": "cell viability (annexin V/PI), T24", "setting": "[6]", "result": "reduced cell viability"}, {"measurement": "proportion of cells undergoing early apoptosis, T24", "setting": "[6]", "result": "increased the proportion of cells undergoing early apoptosis"}]}
